{"source": "patent US20170166561A1", "about": "“QUINUCLIDINE COMPOUNDS FOR MODULATING ALPHA7-NICOTINIC ACETYLCHOLINE RECEPTOR ACTIVITY” (Alpharmagen, LLC, priority 2014, published 2017)", "data": [{"assay": "Metabolic stability assay in human liver microsomes (HLM; Protocols 1 and 2)", "assay_type": "in vitro ADME", "settings": "Protocol 1; human liver microsomes, 1 μM, NADPH, 37° C.", "description": "(§1) Example B4: Metabolic Stability Assays\n(§2) Studies were carried out in human and rat liver microsomes (“HLM” and “RLM,” respectively). Human and rat liver microsomes were purchased from BD Gentest. DMSO stocks were prepared for the test compounds. Aliquots of the DMSO solutions were diluted to 0.5 mM by acetonitrile, then further diluted by liver microsomes/buffer to 1.5 μM. 30 μL of 1.5 μM solutions were mixed with 15 μL of 6 mM NADPH, which had been pre-warmed to 37° C., at a final test compound concentration of 1 μM. The plates were kept in a 37° C. water bath for the duration of the experiment. At each time point (0, 5, 15, 30, 45 minutes), 135 μL of acetonitrile was added into corresponding wells. After the final time point was sampled, the plates were shaken at a vibrator (IKA, MTS 2/4) for 10 min (600 rpm/min) and then centrifuged at 5594 g for 15 min (Thermo Multifuge×3R). Aliquots of the supernatant were removed, diluted 1:1 into distilled water, and analyzed by LC-MS/MS. The peak area response ratio to internal standard (PARR) of the compounds at 5, 15, 30, 45 minutes was compared to the PARR at time 0 to determine the percent of test compound remaining at each time point. Half-lives were calculated using Excel software, fitting to a single-phase exponential decay equation.\n(§3) Studies were carried out in human and rat liver microsomes. Buffer solutions were prepared as follows: Buffer A: 1.0 L of 0.1 M monobasic Potassium Phosphate buffer containing 1.0 mM EDTA; Buffer B: 1.0 L of 0.1 M Dibasic Potassium Phosphate buffer containing 1.0 mM EDTA; Buffer C: 0.1 M Potassium Phosphate buffer, 1.0 mM EDTA, pH 7.4 by titrating 700 mL of buffer B with buffer A while monitoring with a pH meter.\n(§4) Reference compound (Ketanserin) and test compound spiking solutions were prepared as follows: 500 μM spiking solution: add 10 μL of 10 mM DMSO stock solution into 190 μL ACN; 1.5 μM spiking solution in microsomes (0.75 mg/mL): add 1.5 μL of 500 μM spiking solution and 18.75 μL of 20 mg/mL liver microsomes into 479.75 μL of Buffer C.\n(§5) NADPH stock solution (6 mM) was prepared by dissolving NADPH into buffer C.\n(§6) Assay procedure: 30 μL of 1.5 μM spiking solution containing 0.75 mg/mL microsomes solution was dispensed to the wells designated for 45 min, 30 min, 15 min, 5 min, and 0 min. The plate was pre-incubated at 37° C. for 10 minutes. 15 μL of NADPH stock solution (6 mM) was added to the wells designated as Time 45, and the timer was started. At 30 min, 15 min, and 5 min, 15 μL NADPH stock solution (6 mM) was added to the wells, respectively. At the end of incubation (0 min), 135 tit of ACN containing IS was added to all the wells. Then 15 tit of NADPH stock solution (6 mM) was added to the wells designated as Time 0. After quenching, the reaction mixtures were centrifuged at 3220 g for 10 min. Following centrifugation, 50 μL of the supernatant was transferred from each well into a 96-well sample plate containing 50 μL of ultra-pure water (Millipore) for LC/MS analysis. The peak area response (PARR) ratio to internal standard of the compounds at 5, 15, 30, and 45 minutes was compared to the PARR at time 0 to determine the percent of test compound remaining at each time point. Half-lives were calculated using Excel software, fitting to a single-phase exponential decay equation.", "units": {"HLM": "mL/min/kg"}, "values": [{"smiles": "Cc1cc2[nH]cc(C(=O)OCC34CCN(CC3)CC4)c2cc1Cl.Cl", "note": "[Compound 66, quinuclidin-4-ylmethyl 5-chloro-6-methyl-1H-indole-3-carboxylate hydrochloride]", "HLM": 0}]}, {"assay": "Metabolic stability assay in human liver microsomes (HLM; Protocols 1 and 2)", "assay_type": "in vitro ADME", "settings": "human, microsomes, 1 μM", "description": "as §1, §2, §3, §4, §5, §6", "units": {"HLM": "mL/min/kg"}, "values": [{"smiles": "Cc1cc2c(C(=O)OCC34CCN(CC3)CC4)c[nH]c2cc1Cl", "note": "[Compound 78, quinuclidin-4-ylmethyl 6-chloro-5-methyl-1H-indole-3-carboxylate]", "HLM": 0}]}, {"assay": "Human plasma stability (Protocols 1 and 2)", "assay_type": "in vitro ADME", "settings": "human, plasma, 2 h, 1 μM, pH 7.4", "description": "(§7) Example B6: Human Plasma Stability\n(§8) Studies were carried out in human plasma. All plasma was obtained from Bioreclamation and collected on sodium heparin. Plasma was adjusted to pH 7.4. A DMSO stock was first prepared for the test compound. An aliquot of the DMSO solution was dosed into 1 mL of plasma, which had been pre-warmed to 37° C., at a final test compound concentration of 1 μM. The vials were kept in a benchtop Thermomixer® for the duration of the experiment. Aliquots (100 μL) were taken at each time point (0, 15, 30, 60, and 120 minutes) and added to 96-well plates which had been pre-filled with 300 μL of acetonitrile. Samples were stored at 4° C. until the end of the experiment. After the final time point was sampled, the plate was mixed and then centrifuged at 3,000 rpm for 10 minutes. Aliquots of the supernatant were removed, diluted 1:1 into distilled water, and analyzed by LC-MS/MS. The peak area response ratio to internal standard (PARR) of the compound at 15, 30, 60 and 120 minutes was compared to the PARR at time 0 to determine the percent of test compound remaining at each time point. Half-lives were calculated using GraphPad software, fitting to a single-phase exponential decay equation.\n(§9) Studies were carried out in plasma. Plasma was prepared under approval of IRB and IACUC on sodium heparin. The pH of plasma was monitored and used within the range of pH 7.4 to pH 8.0. DMSO stocks were prepared for the test compounds. Aliquots of the DMSO solutions were diluted to 0.05 mM by 0.05 mM Sodium phosphate buffer with 0.5% BSA. Then 10 μL of 0.05 mM solutions were dosed into 90 μL of plasma in duplicates (n=2), which had been pre-warmed to 37° C., at a final test compound concentration of 5 μM. The plates were kept in a 37° C. water bath for the duration of the experiment. At each time point (0, 5, 15, 30, 45, 60, and 120 minutes), 400 μL of acetonitrile was added into corresponding wells. After the final time point was sampled, the plates were shaken at the vibrator (IKA, MTS 2/4) for 10 min (600 rpm/min) and then centrifuged at 5594 g for 15 min (Thermo Multifuge×3R). Aliquots of the supernatant were removed, diluted 1:1 into distilled water, and analyzed by LC-MS/MS. The peak area response ratio to internal standard (PARR) of the compounds at 5, 15, 30, 45, 60, and 120 minutes was compared to the PARR at time 0 to determine the percent of test compound remaining at each time point. Half-lives were calculated using Excel software, fitting to a single-phase exponential decay equation.", "units": {"% Remaining @ 2 h": "%"}, "values": [{"smiles": "O=C(OCC12CCN(CC1)CC2)c1c[nH]c2cc(O)ccc12", "note": "[Compound 14, quinuclidin-4-ylmethyl 6-hydroxy-1H-indole-3-carboxylate]", "% Remaining @ 2 h": 26}, {"smiles": "O=C(OCC12CCN(CC1)CC2)c1c[nH]c2cc(Br)ccc12", "note": "[Compound 22, quinuclidin-4-ylmethyl 6-bromo-1H-indole-3-carboxylate]", "% Remaining @ 2 h": 58}, {"smiles": "O=C(OCC12CCN(CC1)CC2)c1c[nH]c2ccccc12", "note": "[Compound 1, quinuclidin-4-ylmethyl 1H-indole-3-carboxylate]", "% Remaining @ 2 h": 11}, {"smiles": "COc1ccc2[nH]cc(C(=O)OCC34CCN(CC3)CC4)c2c1", "note": "[Compound 18, quinuclidin-4-ylmethyl 5-methoxy-1H-indole-3-carboxylate]", "% Remaining @ 2 h": 5.8}, {"smiles": "O=C(OCC12CCN(CC1)CC2)c1c[nH]c2cc(Cl)ccc12", "note": "[Compound 26, quinuclidin-4-ylmethyl 6-chloro-1H-indole-3-carboxylate]", "% Remaining @ 2 h": 65}, {"smiles": "COc1cccc2[nH]cc(C(=O)OCC34CCN(CC3)CC4)c12", "note": "[Compound 36, quinuclidin-4-ylmethyl 4-methoxy-1H-indole-3-carboxylate]", "% Remaining @ 2 h": 2.5}]}, {"assay": "Human plasma stability (Protocols 1 and 2)", "assay_type": "in vitro ADME", "settings": "human, plasma, pH 7.4", "description": "as §7, §8, §9", "units": {"half-life at 5 μM": "h"}, "values": [{"smiles": "Cc1cc2c(C(=O)OCC34CCN(CC3)CC4)c[nH]c2cc1Cl", "note": "[Compound 78, quinuclidin-4-ylmethyl 6-chloro-5-methyl-1H-indole-3-carboxylate]", "half-life at 5 μM": 4.77}, {"smiles": "COc1cc2c(C(=O)OCC34CCN(CC3)CC4)c[nH]c2cc1C#N", "note": "[Compound 76, quinuclidin-4-ylmethyl 6-cyano-5-methoxy-1H-indole-3-carboxylate]", "half-life at 5 μM": 4.88}, {"smiles": "COc1ccc2[nH]cc(C(=O)OCC34CCN(CC3)CC4)c2c1Cl", "note": "[Compound 39, quinuclidin-4-ylmethyl 4-chloro-5-methoxy-1H-indole-3-carboxylate]", "half-life at 5 μM": 0.711}, {"smiles": "COc1cc2[nH]cc(C(=O)OCC34CCN(CC3)CC4)c2cc1C", "note": "[Compound 56, quinuclidin-4-ylmethyl 6-methoxy-5-methyl-1H-indole-3-carboxylate]", "half-life at 5 μM": 5.72}, {"smiles": "Cc1cc(Br)c2c(C(=O)OCC34CCN(CC3)CC4)c[nH]c2c1", "note": "[Compound 49, quinuclidin-4-ylmethyl 4-bromo-6-methyl-1H-indole-3-carboxylate]", "half-life at 5 μM": 13.8}, {"smiles": "COc1cc(Br)c2c(C(=O)OCC34CCN(CC3)CC4)c[nH]c2c1", "note": "[Compound 48, quinuclidin-4-ylmethyl 4-bromo-6-methoxy-1H-indole-3-carboxylate]", "half-life at 5 μM": 982}, {"smiles": "Cc1cc2c(C(=O)OCC34CCN(CC3)CC4)c[nH]c2cc1O", "note": "[Compound 55, quinuclidin-4-ylmethyl 6-hydroxy-5-methyl-1H-indole-3-carboxylate]", "half-life at 5 μM": 1.54}, {"smiles": "Cc1cc(C)c2c(C(=O)OCC34CCN(CC3)CC4)c[nH]c2c1", "note": "[Compound 54, quinuclidin-4-ylmethyl 4,6-dimethyl-1H-indole-3-carboxylate]", "half-life at 5 μM": 11.2}, {"smiles": "CC(=O)Nc1cc(C)c2c(C(=O)OCC34CCN(CC3)CC4)c[nH]c2c1", "note": "[Compound 93, quinuclidin-4-ylmethyl 6-acetamido-4-methyl-1H-indole-3-carboxylate]", "half-life at 5 μM": 10.7}, {"smiles": "Cc1ccc2[nH]cc(C(=O)OCC34CCN(CC3)CC4)c2c1Cl", "note": "[Compound 63, quinuclidin-4-ylmethyl 4-chloro-5-methyl-1H-indole-3-carboxylate]", "half-life at 5 μM": 7.05}, {"smiles": "O=C(OCC12CCN(CC1)CC2)c1c[nH]c2cc(O)cc(Cl)c12", "note": "[Compound 46, quinuclidin-4-ylmethyl 4-chloro-6-hydroxy-1H-indole-3-carboxylate]", "half-life at 5 μM": 14.3}, {"smiles": "COc1ccc2[nH]cc(C(=O)OCC34CCN(CC3)CC4)c2c1OC", "note": "[Compound 40, quinuclidin-4-ylmethyl 4,5-dimethoxy-1H-indole-3-carboxylate]", "T1/2": "∞"}, {"smiles": "COc1cc(C)cc2[nH]cc(C(=O)OCC34CCN(CC3)CC4)c12", "note": "[Compound 85, quinuclidin-4-ylmethyl 4 methoxy-6-methyl-1H-indole-3-carboxylate]", "half-life at 5 μM": 1.16}, {"smiles": "COCCCOc1ccc2[nH]cc(C(=O)OCC34CCN(CC3)CC4)c2c1C", "note": "[Compound 92, quinuclidin-4-ylmethyl 5-(3-methoxypropoxy)-4-methyl-1H-indole-3-carboxylate]", "half-life at 5 μM": 3.13}, {"smiles": "COc1ccc2[nH]cc(C(=O)OCC34CCN(CC3)CC4)c2c1Br", "note": "[Compound 47, quinuclidin-4-ylmethyl 4-bromo-5-methoxy-1H-indole-3-carboxylate]", "half-life at 5 μM": 4.34}, {"smiles": "Cc1ccc2[nH]cc(C(=O)OCC34CCN(CC3)CC4)c2c1Br", "note": "[Compound 68, quinuclidin-4-ylmethyl 4-bromo-5-methyl-1H-indole-3-carboxylate]", "T1/2": "∞"}, {"smiles": "COc1c(C)ccc2[nH]cc(C(=O)OCC34CCN(CC3)CC4)c12", "note": "[Compound 75, quinuclidin-4-ylmethyl 4-methoxy-5-methyl-1H-indole-3-carboxylate]", "T1/2": "∞"}]}, {"assay": "Human plasma stability (Protocols 1 and 2)", "assay_type": "in vitro ADME", "settings": "human; Protocol 2; plasma pH 7.4 to 8.0, 5 μM, 37° C.; read-out: T1/2", "description": "as §7, §8, §9", "units": {"half-life at 5 μM": "h"}, "values": [{"smiles": "Cc1cc2[nH]cc(C(=O)OCC34CCN(CC3)CC4)c2cc1Cl.Cl", "note": "[Compound 66, quinuclidin-4-ylmethyl 5-chloro-6-methyl-1H-indole-3-carboxylate hydrochloride]", "half-life at 5 μM": 5.26}, {"smiles": "Cl.O=C(OCC12CCN(CC1)CC2)c1c[nH]c2cc(F)cc(Cl)c12", "note": "[Compound 64, quinuclidin-4-ylmethyl 4-chloro-6-fluoro-1H-indole-3-carboxylate hydrochloride]", "half-life at 5 μM": 12.1}, {"smiles": "Cc1cc2[nH]cc(C(=O)OCC34CCN(CC3)CC4)c2cc1C.Cl", "note": "[Compound 73, Quinuclidin-4-ylmethyl 5,6-dimethyl-1H-indole-3-carboxylate hydrochloride]", "half-life at 5 μM": 1.57}, {"smiles": "Cc1cc(Cl)c2c(C(=O)OCC34CCN(CC3)CC4)c[nH]c2c1.Cl", "note": "[Compound 65, quinuclidin-4-ylmethyl 4-chloro-6-methyl-1H-indole-3-carboxylate hydrochloride]", "half-life at 5 μM": 5.56}]}]}
